Source: ChEMBL document CHEMBL1201862, “PubChem BioAssay data set” (2004)
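Interpolation was linear, between the two tested concentrations surrounding the appropriate level; five concentrations were tested over 48 hours in 96-well plates. GI50: concentration for 50% inhibition of growth.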 Activity calls are given as the source filed them. Rule as the data show it: active = GI50 up to about 1.1 µM and inactive = higher.

What was measured:
Assay in all cases: NCI anticancer screen, dose series, 48 h
UO-31 = test system: UO-31
SK-MEL-28 = test system: SK-MEL-28
SNB-78 = test system: SNB-78
HT-29 = test system: HT-29
HCC 2998 = test system: HCC 2998
A549 = test system: A549
COLO 205 = test system: COLO 205
ACHN = test system: ACHN
TK-10 = test system: TK-10
SNB-75 = test system: SNB-75
U-251 = test system: U-251
SN12C = test system: SN12C
M19-MEL = test system: M19-MEL
HCT-116 = test system: HCT-116
SW-620 = test system: SW-620
HOP-92 = test system: HOP-92
CAKI-1 = test system: CAKI-1
SK-MEL-5 = test system: SK-MEL-5
CCRF-CEM = test system: CCRF-CEM
RPMI-8226 = test system: RPMI-8226

| SMILES | GI50 (UO-31) | GI50 (SK-MEL-28) | GI50 (SNB-78) | GI50 (HT-29) | GI50 (HCC 2998) | GI50 (A549) | GI50 (COLO 205) | GI50 (ACHN) | GI50 (TK-10) | GI50 (SNB-75) | GI50 (U-251) | GI50 (SN12C) | GI50 (M19-MEL) | GI50 (HCT-116) | GI50 (SW-620) | GI50 (HOP-92) | GI50 (CAKI-1) | GI50 (SK-MEL-5) | GI50 (CCRF-CEM) | GI50 (RPMI-8226) |
| --- | --- | --- | --- | --- | --- | --- | --- | --- | --- | --- | --- | --- | --- | --- | --- | --- | --- | --- | --- | --- |
| CC(C)=CCC/C(C)=C/C=C/C(C)=C/C1C[C@@]2(C(O)O1)[C@H](CCCO)/C(=C(/C)C=O)CC[C@]2(C)O (stereo partly specified) | 17.3 µM (inactive) | 15.9 µM (inactive) | 20.5 µM (inactive) | 16.4 µM (inactive) | 15 µM (inactive) | 7.8 µM (inactive) | 1.08 µM (active) | 11.6 µM (inactive) | 25.5 µM (inactive) | 51.9 µM (inactive) | > 10 µM (inactive) | 15.6 µM (inactive) | 16.2 µM (inactive) | 20.2 µM (inactive) | 10.4 µM (inactive) | < 0.01 µM (active) | 11.6 µM (inactive) |  |  |  |
| CC1CC[P+](c2ccccc2)(c2ccccc2)c2c1ccc1ccccc21 (stereo unspecified) | 15.9 µM (inactive) |  | 2.67 µM (inactive) | 2.28 µM (inactive) | 9.48 µM (inactive) | 4.83 µM (inactive) |  | 9.62 µM (inactive) |  | 2.37 µM (inactive) |  | 2.49 µM (inactive) | 1.69 µM (inactive) | 1.96 µM (inactive) |  | 1.45 µM (inactive) | 6.75 µM (inactive) | 0.83 µM (active) | 3.78 µM (inactive) |  |
| O=C1CCC23CC(C=CC=C12)n1c(=O)n(-c2ccccc2)c(=O)n13 (stereo unspecified) | > 64.4 µM (inactive) | > 69.2 µM (inactive) | > 59.2 µM (inactive) | > 88.9 µM (inactive) | > 100 µM (inactive) | > 63.8 µM (inactive) | > 100 µM (inactive) |  |  | > 100 µM (inactive) |  | > 100 µM (inactive) | > 100 µM (inactive) | > 71.9 µM (inactive) | 43.2 µM (inactive) | > 100 µM (inactive) | > 50.6 µM (inactive) | > 87.3 µM (inactive) | 42.4 µM (inactive) | > 100 µM (inactive) |
| Cc1ccc(NC(=O)OCC(COc2ccc(Cl)cc2)OC(=O)Nc2ccc(C)cc2)cc1 (stereo unspecified) | 11.9 µM (inactive) | 35.1 µM (inactive) | 23.2 µM (inactive) | 15.2 µM (inactive) | 39 µM (inactive) | 13.7 µM (inactive) | 39.6 µM (inactive) | 20.7 µM (inactive) | 12.4 µM (inactive) | 14.5 µM (inactive) | 28.4 µM (inactive) | 20.4 µM (inactive) | 22.4 µM (inactive) | 20.7 µM (inactive) | 17.1 µM (inactive) | 11.1 µM (inactive) | 15.7 µM (inactive) | 24.5 µM (inactive) | 9.93 µM (inactive) | 9.77 µM (inactive) |
| CCCCCCCCCCCCCC(=O)OC1C(O)C(CO)OC(OC)C1NC(=O)N(CCCl)N=O (stereo unspecified) | > 100 µM (inactive) | > 100 µM (inactive) |  | 56.6 µM (inactive) | > 100 µM (inactive) | 83.9 µM (inactive) | > 100 µM (inactive) | 41.4 µM (inactive) | > 100 µM (inactive) | 38.6 µM (inactive) | 25.6 µM (inactive) | 37 µM (inactive) | > 100 µM (inactive) |  | > 100 µM (inactive) |  | > 100 µM (inactive) | 45.2 µM (inactive) |  | 30.8 µM (inactive) |
| C1CSCCSCSCCS1 | > 100 µM (inactive) | > 100 µM (inactive) |  | > 100 µM (inactive) | > 100 µM (inactive) | > 100 µM (inactive) | > 100 µM (inactive) | > 100 µM (inactive) | > 100 µM (inactive) | 48.3 µM (inactive) | > 100 µM (inactive) | > 100 µM (inactive) |  | > 100 µM (inactive) | > 100 µM (inactive) | > 100 µM (inactive) | > 100 µM (inactive) | > 100 µM (inactive) |  |  |
| c1cncc(O[Si](Oc2cccnc2)(Oc2cccnc2)Oc2cccnc2)c1 | > 100 µM (inactive) | > 100 µM (inactive) | > 100 µM (inactive) | > 100 µM (inactive) | > 100 µM (inactive) | > 100 µM (inactive) | > 100 µM (inactive) |  | > 100 µM (inactive) | > 100 µM (inactive) | > 100 µM (inactive) | > 100 µM (inactive) | > 100 µM (inactive) |  | > 100 µM (inactive) |  | > 100 µM (inactive) | > 100 µM (inactive) |  |  |
| N#Cc1ccc(C2Oc3ccc(Cl)cc3C=C2[N+](=O)[O-])cc1 (stereo unspecified) | 1.63 µM (inactive) | 1.82 µM (inactive) |  | 2.4 µM (inactive) | 0.979 µM (active) | 1.85 µM (inactive) | 0.74 µM (active) | 1.67 µM (inactive) | 1.85 µM (inactive) | 1.47 µM (inactive) | 1.74 µM (inactive) | 1.31 µM (inactive) |  | 0.522 µM (active) | 0.845 µM (active) | 1.39 µM (inactive) | 1.52 µM (inactive) | 1.38 µM (inactive) | 0.219 µM (active) | 0.334 µM (active) |
| CCOC(=O)N1C=NC23C(c4ccccc4)C(c4ccccc4)C12C(=O)N(C)C(=O)N3C (stereo unspecified) | 77.1 µM (inactive) | > 100 µM (inactive) |  | > 100 µM (inactive) | > 100 µM (inactive) | > 100 µM (inactive) | > 100 µM (inactive) | > 100 µM (inactive) | > 100 µM (inactive) | > 100 µM (inactive) | > 100 µM (inactive) | > 100 µM (inactive) | > 100 µM (inactive) | > 100 µM (inactive) | > 100 µM (inactive) | > 100 µM (inactive) | > 100 µM (inactive) | > 100 µM (inactive) | > 100 µM (inactive) | 44.2 µM (inactive) |
| N#C[C@H](OC1OC(COC2OC(CO)C(O)C(O)C2O)C(O)C(O)C1O)c1ccccc1 (stereo partly specified) | > 250 µM (inactive) | > 250 µM (inactive) | 228 µM (inactive) | > 250 µM (inactive) | > 250 µM (inactive) | > 250 µM (inactive) | > 250 µM (inactive) |  |  | > 250 µM (inactive) | > 250 µM (inactive) | > 250 µM (inactive) | > 250 µM (inactive) | > 250 µM (inactive) | > 250 µM (inactive) | 2.5 µM (inactive) | > 250 µM (inactive) | > 250 µM (inactive) | > 250 µM (inactive) | > 250 µM (inactive) |
| SC1=Nc2ccccc2-c2nc(-c3ccccc3)cc(-c3ccc(Br)cc3)c2C1 | 1.57 µM (inactive) | 11.2 µM (inactive) |  | 2.07 µM (inactive) | 3.17 µM (inactive) | 2.32 µM (inactive) | 2.66 µM (inactive) |  |  | 1.26 µM (inactive) | 0.982 µM (active) | 0.791 µM (active) |  | 1.64 µM (inactive) | 2.4 µM (inactive) | 1.95 µM (inactive) | 1.5 µM (inactive) | 8.3 µM (inactive) | 1.88 µM (inactive) | 15.8 µM (inactive) |
